Data taken from PMC12481576, “Barbituric Acid Derivatives as Covalent Inhibitors of Leishmania braziliensis Dihydroorotate Dehydrogenase” (Journal of Medicinal Chemistry, 2025).
Several values for one entry are separate records, joined by “and”; a condition that tells them apart may be missing. Identical values can stand only once. Like-named read-outs stand apart in the source and are kept apart here.

How the values were obtained:
LbDHODH = LbDHODH (Leishmania braziliensis, UniProt E9AI53); experiment: biochemical; conditions: for IC50: LbDHODH
Method in brief: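 Screened at 100 μM with and without 4-h enzyme preincubation; DCIP reduction during DHO oxidation read at 610 nm every 3 s for 60 s in 50 mM Tris pH 8.15, 150 mM KCl, 0.1% Triton X-100, triplicate, 5% DMSO control. kinact/KI taken as slope of kobs versus inhibitor concentration (initial linear region).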

HsDHODH = target: T1, HsDHODH (Homo sapiens, UniProt Q02127); experiment: Selectivity assay: HsDHODH single-dose inhibition (DCIP reduction); type: biochemical
T1 construct: made in house
Method in brief: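 Recombinant human DHODH at 20 nM final, purified by Ni-NTA affinity, tested at a single compound concentration in triplicate. DCIP reduction followed at 610 nm every 3 s over 60 s. Velocity expressed as % activity relative to enzyme control without compound.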

[1] = Cell viability / cytotoxicity assay (PrestoBlue, 72 h); type: cell-based; conditions: human; THP-1 cell line, 72 h, max 200 μM; read-out: CC50
Method in brief: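 PMA-differentiated THP-1 cells (150 ng/mL PMA, 48 h; then 24 h in fresh medium) were exposed to compounds in serial dilution from 200 μM for 72 h at 37 °C, 5% CO2. Viability was read by PrestoBlue fluorescence (ex 560/em 590 nm) after 2 h.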

[2] = Parallel artificial membrane permeability assay (PAMPA); conditions: for recovery at 6 h, 10 µM: PAMPA
Method in brief: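 Compounds at 10 μM final (5% DMSO) in PBS pH 7.4 in donor wells, PBS pH 7.4 acceptor, duplicate; incubated 6 h at room temperature. Donor, acceptor and initial donor (T0) concentrations quantified by LC-MS/MS.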

in vitro = conditions: microsomes; for microsomal CLint at 1 μM / remaining at 5 min, 1 μM: male, CD1, mouse; for remaining at 5 min, 1 μM / remaining at 10 min, 1 µM / remaining at 20 min, 1 µM / remaining at 0.5 h, 1 µM / remaining at 1 h, 1 µM: pH 7.4, % Remaining; for remaining at 5 min, 1 μM: T=5 min; for remaining at 10 min, 1 µM / remaining at 20 min, 1 µM / remaining at 0.5 h, 1 µM / remaining at 1 h, 1 µM: mouse; for remaining at 10 min, 1 µM: T=10 min; for remaining at 20 min, 1 µM: T=20 min; for remaining at 0.5 h, 1 µM: T=30 min, 30 min; for remaining at 1 h, 1 µM: T=60 min, 60 min
[3] = for Raw data: analyte peak area, T=0: 0 min; for Raw data: analyte peak area, T=0 / Raw data: analyte peak area, T=5 / Raw data: analyte peak area, T=10 / Raw data: analyte peak area, T=20: raw LC-MS area; for Raw data: analyte peak area, T=5: 5 min; for Raw data: analyte peak area, T=10: 10 min; for Raw data: analyte peak area, T=20: 20 min
[4] = Mouse liver microsome stability in the absence of cofactors (NCF); conditions: 60 min, no cofactor (NCF); for Raw data: analyte peak area, T=60 NCF: mouse liver microsomes, raw LC-MS area; for remaining at 1 h, 1 µM: mouse, microsomes, pH 7.4, % Remaining, T=60 NCF
[5] = 0 h, pH 8.15, read-out: LbDHODH Activity±SD (%)
[6] = 4 h, pH 8.15, read-out: LbDHODH Activity±SD (%)
[7] = read-out: Single dose (0h) % activity
[8] = read-out: Single dose (4h) % activity
[9] = average of n=2, 10µM, PBS pH 7.4/7.4, 6h at room temperature
[10] = n=1, mouse liver microsomes, n=1
[11] = n=2, mouse liver microsomes, n=2
[12] = mouse liver microsomes, replicate 1 (left block)
[13] = mouse liver microsomes, replicate 2 (right block)

Chain of LbDHODH (E9AI53 entry or part of it): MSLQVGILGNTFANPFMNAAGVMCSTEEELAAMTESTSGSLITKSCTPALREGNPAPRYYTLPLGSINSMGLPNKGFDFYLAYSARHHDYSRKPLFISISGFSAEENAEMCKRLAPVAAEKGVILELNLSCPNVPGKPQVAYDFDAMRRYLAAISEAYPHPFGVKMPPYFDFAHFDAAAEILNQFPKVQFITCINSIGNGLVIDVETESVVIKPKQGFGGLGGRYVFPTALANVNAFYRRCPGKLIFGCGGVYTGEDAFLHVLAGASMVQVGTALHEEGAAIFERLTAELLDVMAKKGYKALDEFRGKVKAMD
T1 sequence (Q02127 whole entry): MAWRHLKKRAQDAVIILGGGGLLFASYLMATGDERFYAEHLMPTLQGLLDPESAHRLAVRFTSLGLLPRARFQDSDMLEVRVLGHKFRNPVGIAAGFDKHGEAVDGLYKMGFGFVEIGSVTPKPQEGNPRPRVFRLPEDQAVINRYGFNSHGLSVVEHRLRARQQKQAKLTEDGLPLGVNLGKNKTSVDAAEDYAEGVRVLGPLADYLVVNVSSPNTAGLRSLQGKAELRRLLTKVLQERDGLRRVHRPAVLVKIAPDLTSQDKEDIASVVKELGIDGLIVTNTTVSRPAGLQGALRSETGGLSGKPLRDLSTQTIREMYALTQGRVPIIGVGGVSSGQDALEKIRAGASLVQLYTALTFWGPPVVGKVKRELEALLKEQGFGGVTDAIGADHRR

O=C1NC(=O)C(=Cc2ccc(N3CCOCC3)cc2[N+](=O)[O-])C(=O)N1 [2e, 5-(4-Morpholino-2-nitrobenzylidene)pyrimidine-2,4,6(1H,3H,5H)-trione]
activity at 0.048828 µM (LbDHODH; [5]): 87 ± 1%
activity at 0.0976562 µM (LbDHODH; [5]): 92 ± 1%
activity at 0.195312 µM (LbDHODH; [5]): 94 ± 1%
activity at 0.390625 µM (LbDHODH; [5]): 79 ± 3%
activity at 0.78125 µM (LbDHODH; [5]): 83 ± 4%
activity at 1.5625 µM (LbDHODH; [5]): 71 ± 2%
activity at 3.125 µM (LbDHODH; [5]): 67 ± 4%
activity at 6.25 µM (LbDHODH; [5]): 45 ± 3%
activity at 12.5 µM (LbDHODH; [5]): 31 ± 4%
activity at 25 µM (LbDHODH; [5]): 22 ± 1%
activity at 50 µM (LbDHODH; [5]): 7 ± 5%
activity at 100 µM (LbDHODH; [5]): 10 ± 1%
activity at 0.048828 µM (LbDHODH; [6]): 104 ± 4%
activity at 0.0976562 µM (LbDHODH; [6]): 107 ± 3%
activity at 0.195312 µM (LbDHODH; [6]): 104 ± 3%
activity at 0.390625 µM (LbDHODH; [6]): 106 ± 7%
activity at 0.78125 µM (LbDHODH; [6]): 103 ± 1%
activity at 1.5625 µM (LbDHODH; [6]): 85 ± 2%
activity at 3.125 µM (LbDHODH; [6]): 87 ± 2%
activity at 6.25 µM (LbDHODH; [6]): 87 ± 2%
activity at 12.5 µM (LbDHODH; [6]): 60 ± 8%
activity at 25 µM (LbDHODH; [6]): 67 ± 6%
activity at 50 µM (LbDHODH; [6]): 35 ± 4%
activity at 100 µM (LbDHODH; [6]): 13 ± 1%
IC50 (LbDHODH; IC50 0 h, without preincubation): 5 ± 1 µM
IC50 (LbDHODH; IC50 4 h, 4-h preincubation): 28 ± 3 µM
activity at 100 µM (LbDHODH; [7]): 10 ± 1%
activity at 100 µM (LbDHODH; [8]): 7 ± 2%
inhibition at 100 µM (LbDHODH; read-out: enzyme inhibition): 90 to 93%
activity at 100 µM (HsDHODH; [7]): 80 ± 9%
activity at 100 µM (HsDHODH; [8]): 86 ± 8%
CC50 at 72 h [1]: > 200 µM
Remarks (PAMPA) ([2]; 10µM, PBS pH 7.4/7.4, 6h at room temperature, LC-MS/MS): No peak detected in acceptor samples
recovery at 6 h, 10 µM ([2]; pH 7.4, % Recovery n=1, replicate n=1, 10µM, PBS pH 7.4/7.4, 6h at room temperature): 95.1%
recovery at 6 h, 10 µM ([2]; pH 7.4, % Recovery n=2, replicate n=2, 10µM, PBS pH 7.4/7.4, 6h at room temperature): 101%
recovery at 6 h, 10 µM ([2]; pH 7.4, Avg % Recovery, average of n=2, 10µM, PBS pH 7.4/7.4, 6h at room temperature): 98.2%
Avg Log Pe (cm/sec) [2, 9]: -9.4 cm/sec and -9.35 cm/sec
Avg Pe [2, 9]: 0.000444 ×10⁻⁶ cm/s
LogPe (cm/sec) n1 ([2]; replicate n1, calculation section, 10µM, PBS pH 7.4/7.4, 6h): -9.34 cm/sec
LogPe (cm/sec) n2 ([2]; replicate n2, calculation section, 10µM, PBS pH 7.4/7.4, 6h): -9.37 cm/sec
Pe (nm/sec) n=1 ([2]; replicate n=1, 10µM (5% DMSO), PBS pH 7.4/7.4, 6h at room temperature, LC-MS/MS): 0.00461 nm/s
% Recovery n=1 ([2]; replicate n=1, 10µM, PBS pH 7.4/7.4, 6h at room temperature): 95.05%
Pe (nm/sec) n=2 ([2]; replicate n=2, 10µM (5% DMSO), PBS pH 7.4/7.4, 6h at room temperature, LC-MS/MS): 0.00426 nm/s
microsomal CLint at 1 μM (in vitro; pH 7.4): < 14.4 µL/min/mg
remaining at 5 min, 1 μM (in vitro; [10]): 91.8%
remaining at 5 min, 1 μM (in vitro; [11]): 103%
microsomal CLint at 1 μM (in vitro; pH 7.4, mouse liver microsomes CLint, app, mouse liver microsomes, NADPH, 1 μM): < 14.4 µL/min/mg
remaining at 10 min, 1 µM (in vitro; [10]): 96%
remaining at 10 min, 1 µM (in vitro; [11]): 109%
remaining at 20 min, 1 µM (in vitro; [10]): 83.8%
remaining at 20 min, 1 µM (in vitro; [11]): 99.7%
remaining at 0.5 h, 1 µM (in vitro; [10]): 85%
remaining at 0.5 h, 1 µM (in vitro; [11]): 91.7%
remaining at 1 h, 1 µM (in vitro; [10]): 87.6%
remaining at 1 h, 1 µM (in vitro; [11]): 88.8%
Calculated T-half (min), Average ([3]; mouse liver microsomes (CD1 male), 0.4 mg/ml protein, test conc 1 µM, average of n=1 and n=2): 298.4 min
Calculated T-half (min), n=1 ([3]; mouse liver microsomes (CD1 male), 0.4 mg/ml protein, test conc 1 µM, replicate n=1): 354.59 min and 354.6 min
Calculated T-half (min), n=2 ([3]; mouse liver microsomes (CD1 male), 0.4 mg/ml protein, test conc 1 µM, replicate n=2): 242.28 min and 242.3 min
Raw data: analyte peak area, T=0 [3, 12]: 18699
Raw data: analyte peak area, T=0 [3, 13]: 19500
Modified T-half (min), Average ([3]; mouse liver microsomes, 0.4 mg/ml, 1 µM, average, limited to T Half range 3.00 - […]): >120.0 min
Raw data: analyte peak area, T=5 [3, 12]: 18869
Raw data: analyte peak area, T=5 [3, 13]: 20171
Raw data: analyte peak area, T=10 [3, 12]: 18566
Raw data: analyte peak area, T=10 [3, 13]: 21617
Raw data: analyte peak area, T=20 [3, 12]: 17411
Raw data: analyte peak area, T=20 [3, 13]: 21071
mouse liver microsomes T-half ([3]; mouse liver microsomes, NADPH, 1 μM): >120.0 min
Raw data: analyte peak area, T=60 NCF ([4]; replicate 1 (left block)): 19133
Raw data: analyte peak area, T=60 NCF ([4]; replicate 2 (right block)): 18454
remaining at 1 h, 1 µM [4, 10]: 100%
remaining at 1 h, 1 µM [4, 11]: 93.1%
